From ChEMBL document CHEMBL4270557, “Discovery of potent anti-convulsant carbonic anhydrase inhibitors: Design, synthesis, in vitro and in vivo appraisal” (Eur J Med Chem, 2018)

Experiments:
Mus musculus [1] = assay: Anticonvulsant activity in Swiss albino mouse assessed as protection against subcutaneous PTZ-induced seizures at 100 mg/kg, ip administered 0.5 hrs prior to PTZ-induction relative to control; type: functional
Mus musculus [2] = assay: Anticonvulsant activity in Swiss albino mouse assessed as protection against maximal electroshock-induced seizures at 30 mg/kg, ip administered 6 hrs prior to 50 mA current induction relative to control; type: functional
Rattus norvegicus [3] = assay: Anticonvulsant activity in Wistar rat assessed as protection against maximal electroshock-induced seizures at 30 mg/kg, po administered 4 hrs prior to 150 mA current induction relative to control; type: functional
Rattus norvegicus [4] = assay: Sub-acute toxicity in Wistar rat assessed as monocytes level at 100 mg/kg, po administered daily for 14 days (reference value: 2.6 +/- 1.5%); type: organism-based; conditions: in vivo, 336 h
Mus musculus [5] = assay: Anticonvulsant activity in Swiss albino mouse assessed as protection against subcutaneous PTZ-induced seizures at 30 mg/kg, ip administered 3 hrs prior to PTZ-induction relative to control; type: functional
Rattus norvegicus [6] = assay: Sub-acute toxicity in Wistar rat assessed as Cl- level at 100 mg/kg, po administered daily for 14 days (reference value: 104.1 +/- 6.2 mEq/L); type: organism-based; conditions: in vivo, 336 h
Rattus norvegicus [7] = assay: Sub-acute toxicity in Wistar rat assessed as total protein level at 100 mg/kg, po administered daily for 14 days (reference value: […]); type: organism-based; conditions: in vivo, 336 h
Carbonic anhydrase 9 = Carbonic anhydrase 9 (Homo sapiens, UniProt Q16790); assay: Inhibition of human recombinant carbonic anhydrase 9 assessed as CO2 hydration preincubated for 15 mins prior to testing measured for 10 to 100 secs by phenol red dye-based stopped-flow assay
Rattus norvegicus [8] = assay: Sub-acute toxicity in Wistar rat assessed as hemoglobin level at 100 mg/kg, po administered daily for 14 days (reference value: 13.1 +/- 0.9 g/dl); conditions: in vivo, 336 h
Mus musculus [9] = assay: Neurotoxicity in Swiss albino mouse at 30 mg/kg, ip after 30 to 120 mins by rotarod test; type: toxicity, organism-based; conditions: in vivo
Rattus norvegicus [10] = assay: Sub-acute toxicity in Wistar rat assessed as neutrophils level at 100 mg/kg, po administered daily for 14 days (reference value: 23.4 +/- 2.9%); type: organism-based; conditions: in vivo, 336 h
Mus musculus [11] = assay: Anticonvulsant activity in Swiss albino mouse assessed as protection against maximal electroshock-induced seizures at 30 mg/kg, ip administered 3 hrs prior to 50 mA current induction relative to control; type: functional
Rattus norvegicus [12] = assay: Sub-acute toxicity in Wistar rat assessed as effect on food intake at 100 mg/kg, po administered daily for 14 days; type: organism-based; conditions: in vivo, 336 h
Rattus norvegicus [13] = assay: Sub-acute toxicity in Wistar rat assessed as basophils level at 100 mg/kg, po administered daily for 14 days (reference value: 0.16 +/- 0.4%); type: organism-based; conditions: in vivo, 336 h
Rattus norvegicus [14] = assay: Sub-acute toxicity in Wistar rat assessed as creatinine level at 100 mg/kg, po administered daily for 14 days (reference value: 0.62 +/- 0.3 mg/dl); type: organism-based; conditions: in vivo, 336 h
Mus musculus [15] = assay: Anticonvulsant activity in Swiss albino mouse assessed as protection against maximal electroshock-induced seizures at 30 mg/kg, ip administered 2 hrs prior to 50 mA current induction relative to control; type: functional
Rattus norvegicus [16] = assay: Sub-acute toxicity in Wistar rat assessed as Na+ level at 100 mg/kg, po administered daily for 14 days (reference value: 143.8 +/- 2.3 mEq/L); type: organism-based; conditions: in vivo, 336 h
Carbonic anhydrase 7 = Carbonic anhydrase 7 (Homo sapiens, UniProt P43166); assay: Inhibition of human recombinant carbonic anhydrase 7 assessed as CO2 hydration preincubated for 15 mins prior to testing measured for 10 to 100 secs by phenol red dye-based stopped-flow assay
Mus musculus [17] = assay: Anticonvulsant activity in Swiss albino mouse assessed as protection against maximal electroshock-induced seizures at 100 mg/kg, ip administered 0.5 hrs prior to 50 mA current induction relative to control
Rattus norvegicus [18] = assay: Anticonvulsant activity in Wistar rat assessed as protection against maximal electroshock-induced seizures at 30 mg/kg, po administered 0.25 hrs prior to 150 mA current induction relative to control; type: functional
Mus musculus [19] = assay: Anticonvulsant activity in Swiss albino mouse assessed as protection against maximal electroshock-induced seizures at 30 mg/kg, ip administered 1 hr prior to 50 mA current induction relative to control; type: functional
Rattus norvegicus [20] = assay: Sub-acute toxicity in Wistar rat assessed as RBC level at 100 mg/kg, po administered daily for 14 days (reference value: 7.9 +/- 0.56 million/mm3); type: organism-based; conditions: in vivo, 336 h
Rattus norvegicus [21] = assay: Sub-acute toxicity in Wistar rat assessed as eosinophils level at 100 mg/kg, po administered daily for 14 days (reference value: 2 +/- 1.4%); type: organism-based; conditions: in vivo, 336 h
Mus musculus [22] = assay: Anticonvulsant activity in Swiss albino mouse assessed as protection against maximal electroshock-induced seizures at 100 mg/kg, ip administered 3 hrs prior to 50 mA current induction relative to control; type: functional
Homo sapiens [23] = species: Homo sapiens; assay: Selectivity ratio of Ki for human recombinant carbonic anhydrase 9 to Ki for human recombinant carbonic anhydrase 7
Rattus norvegicus [24] = assay: Sub-acute toxicity in Wistar rat assessed as effect on water intake at 100 mg/kg, po administered daily for 14 days; type: organism-based; conditions: in vivo, 336 h
Rattus norvegicus [25] = assay: Sub-acute toxicity in Wistar rat assessed as uric acid level at 100 mg/kg, po administered daily for 14 days (reference value: 3.9 +/- 2.8 mg/dl); type: organism-based; conditions: in vivo, 336 h
Homo sapiens [26] = species: Homo sapiens; assay: Selectivity ratio of Ki for human recombinant carbonic anhydrase 1 to Ki for human recombinant carbonic anhydrase 7
Mus musculus [27] = assay: Anticonvulsant activity in Swiss albino mouse assessed as protection against maximal electroshock-induced seizures at 100 mg/kg, ip administered 0.5 hrs prior to 50 mA current induction relative to control; type: functional
Rattus norvegicus [28] = assay: Sub-acute toxicity in Wistar rat assessed as SGPT level at 100 mg/kg, po administered daily for 14 days (reference value: 58.8 +/- 18.8 U/L); type: organism-based; conditions: in vivo, 336 h
Carbonic anhydrase 2 = Carbonic anhydrase 2 (Homo sapiens, UniProt P00918); assay: Inhibition of human recombinant carbonic anhydrase 2 assessed as CO2 hydration preincubated for 15 mins prior to testing measured for 10 to 100 secs by phenol red dye-based stopped-flow assay
Homo sapiens [29] = species: Homo sapiens; assay: Selectivity ratio of Ki for human recombinant carbonic anhydrase 2 to Ki for human recombinant carbonic anhydrase 7
Rattus norvegicus [30] = assay: Sub-acute toxicity in Wistar rat assessed as phosphorus level at 100 mg/kg, po administered daily for 14 days (reference value: 6.71 +/- 1 mg/dl); type: organism-based; conditions: in vivo, 336 h
Mus musculus [31] = assay: Anticonvulsant activity in Swiss albino mouse assessed as protection against subcutaneous PTZ-induced seizures at 100 mg/kg, ip administered 3 hrs prior to PTZ-induction relative to control; type: functional
Rattus norvegicus [32] = assay: Sub-acute toxicity in Wistar rat assessed as K+ level at 100 mg/kg, po administered daily for 14 days (reference value: 4.79 +/- 0.45 mEq/L); type: organism-based; conditions: in vivo, 336 h
Rattus norvegicus [33] = assay: Sub-acute toxicity in Wistar rat assessed as SGOT level at 100 mg/kg, po administered daily for 14 days (reference value: 69.9 +/- 7.7 U/L); type: organism-based; conditions: in vivo, 336 h

Carbonic anhydrase 7, sequence (P43166 whole entry): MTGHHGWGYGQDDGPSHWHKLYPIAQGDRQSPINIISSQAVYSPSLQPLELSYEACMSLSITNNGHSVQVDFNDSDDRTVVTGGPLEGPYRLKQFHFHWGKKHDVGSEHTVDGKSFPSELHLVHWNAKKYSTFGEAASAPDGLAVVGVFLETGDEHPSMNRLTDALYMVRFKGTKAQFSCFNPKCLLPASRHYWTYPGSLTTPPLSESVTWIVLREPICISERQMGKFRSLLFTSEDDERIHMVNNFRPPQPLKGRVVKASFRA

Cc1ccc(N2CCN(c3ccc(/C=N/NC(=O)c4ccc(S(N)(=O)=O)cc4)cc3)CC2)c(C)c1
Activity (Mus musculus [1]): 50%
Activity (Mus musculus [2]): 60%
Activity (Rattus norvegicus [3]): 50%
Activity (Rattus norvegicus [4]): 2%
Activity (Mus musculus [5]): 67%
Activity (Rattus norvegicus [6]): 105.6 mEq/L
Activity (Rattus norvegicus [7]): 6.62 g/dL
Ki (Carbonic anhydrase 9): 1.66 µM
Activity (Rattus norvegicus [8]): 12.2 g/dL
Activity (Mus musculus [9]): Non-Toxic
Activity (Rattus norvegicus [10]): 23.1%
Activity (Mus musculus [11]): 70%
Activity (Rattus norvegicus [12]): Non-Toxic
Activity (Rattus norvegicus [13]): 0.33%
Activity (Rattus norvegicus [14]): 0.75 mg/dL
Activity (Mus musculus [15]): 60%
Activity (Rattus norvegicus [16]): 142.5 mEq/L
Ki (Carbonic anhydrase 7): 0.0178 µM
Activity (Mus musculus [17]): 50%
Activity (Rattus norvegicus [18]): 17%
Activity (Mus musculus [19]): 60%
Activity (Rattus norvegicus [20]): 7.2 million/mm3
Activity (Rattus norvegicus [21]): 2.6%
Activity (Mus musculus [22]): 50%
Ratio Ki (Homo sapiens [23]): 93
Activity (Rattus norvegicus [24]): Non-Toxic
Activity (Rattus norvegicus [25]): 4.33 mg/dL
Ratio Ki (Homo sapiens [26]): 561
Activity (Mus musculus [27]): 50%
Activity (Rattus norvegicus [28]): 60.3 U/L
Ki (Carbonic anhydrase 2): 9.39 µM
Ratio Ki (Homo sapiens [29]): 527
Activity (Rattus norvegicus [30]): 6.48 mg/dL
Activity (Mus musculus [31]): 83%
Activity (Rattus norvegicus [32]): 4.83 mEq/L
Activity (Rattus norvegicus [33]): 65 U/L
